In publication PMC11436758, “Computer-aided drug design to generate a unique antibiotic family” (Nature Communications, 2024):
≈ marks a conversion by molar mass, not a printed value. Where “and” joins values, the source holds several entries; their conditions need not be identical. Equal values may be shown once.

Assays:
[1] = biological target: AcpS^F50/50A (Escherichia coli, UniProt P24224, F49A); assay: Inhibition of purified AcpS site-directed mutant by DNM0547; type: biochemical, E. coli
Procedure: Using purified E. coli AcpS proteins, we determined the enzyme activity of wild-type and numerous AcpS mutants. Those analyzed by scanning alanine mutagenesis included (S. aureus amino acid residue followed by the corresponding E. coli residue) R46/48, F50/50, R54/53, K63/62, N82/81, and H-/108.
Recombinant His-Tagged AcpS expression was induced by IPTG addition and overnight culture. Cell lysate was obtained by sequential aspiration through 16, 18 and 21 G needles in a buffer of 50 mM Tris-HCl (pH 8.5), 10 mM MgCl2, 2 mM DTT, 5% glycerol, and further adjusted to pH 8.1 with MES. […] In a typical AcpS enzyme activity assay, 57 µM [^3H]acetyl-CoA, 2 µg apo-ACP, 10 mM MgCl2, 5 mM DTT, 50 mM Na phosphate (pH 7.0), and AcpS in a final volume of 10 µL were incubated at room temperature in a 1.5 mL microcentrifuge tube. At 5, 10, 15, and 20 min 2 µL of reaction were added to 750 µl 10% TCA on ice. […] 2 mL of scintillation fluid was added, and the amount of [^3H]-labeled holo-ACP formed was quantified by liquid scintillation counting. […] Routinely, each data point was determined at least by triplicate. […]
coli wild type and AcpS mutants determined using purified proteins. b, AcpS enzyme activity for each AcpS mutant was assayed at increasing concentration of DNM0547 (0-128 µM). IC50 was determined using GraphPad Prism. […]

[2] = tested on: E. coli (D22); assay: MIC, outer-membrane-permeable lpxC point mutant; type: cell-based; conditions: Escherichia coli
Excerpt: The outer membrane of Gram-negative bacteria is a robust permeability barrier that prevents many antibiotics from entering Gram-negative cells[46],[47]. The outer leaflet of this outer membrane is primarily composed of the unique lipid lipopolysaccharide (LPS). Strains of E. coli with point mutations in genes coding for LPS biosynthetic enzymes have been isolated that enable some antibiotics to effectively pass through the outer membrane enabling activity against these strains of E. coli[48]–[54]; one such strain is E. coli (D22) which contains a point mutation in the lpxC gene.
The medium employed for the assay was Mueller Hinton II Broth (MHB II; Becton-Dickinson, Sparks, MD, USA). Agar plates used for the organisms were trypticase soy agar plus 5% sheep blood (BD; Sparks, MD, USA). MIC assay plates were prepared using the CLSI broth microdilution procedure. Automated liquid handlers (Multidrop 384, Biomek 2000 and Biomek FX) were used to conduct serial dilutions and liquid transfers. A standardized inoculum of each organism was prepared per CLSI methods. Suspensions were prepared to equal a 0.5 McFarland standard, followed by a 1:20 dilution in test media. […] The microplates were viewed from the bottom using a plate viewer and the MIC was read. The MIC was recorded as the lowest concentration of drug that inhibited visible growth of the organism. […]

[3] = biological target: T1, AcpS_R48A (Escherichia coli, UniProt P24224, R48A); assay: Inhibition of purified AcpS site-directed mutant by drug (Suppl Fig 3 source data); type: biochemical; conditions: for AcpS rate nM/min, Mean / AcpS rate: Suppl Fig 3, [AcpS_R48A] 5 nM; for AcpS rate: replicates
T1 construct: 6x-His (C); made in house
T1 sequence (P24224 whole entry R48A): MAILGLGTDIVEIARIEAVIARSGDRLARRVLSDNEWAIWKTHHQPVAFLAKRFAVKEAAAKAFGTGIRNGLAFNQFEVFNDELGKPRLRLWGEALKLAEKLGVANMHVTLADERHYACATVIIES

AcpS^F50/50A, sequence (P24224 2-126 F49A): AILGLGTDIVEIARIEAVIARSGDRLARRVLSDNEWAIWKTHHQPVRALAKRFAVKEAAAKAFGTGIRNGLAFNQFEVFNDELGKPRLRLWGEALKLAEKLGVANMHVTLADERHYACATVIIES

CC(C)c1cc(Cl)ccc1-c1cc(-c2nnn[nH]2)c(-c2ccc(Cl)cc2C(C)C)s1 [DNM0547]
IC50 [1]: 16.2 µM
MIC [2]: 32 µg/mL (≈ 70 µM)
AcpS rate nM/min, Mean ([3]; Drug Conc 1 uM): 97.88 nM/min
AcpS rate ([3]; Drug Conc 1 uM): 102.89 nM/min and 96.62 nM/min and 94.12 nM/min
AcpS rate nM/min, Mean ([3]; Drug Conc 2 uM): 93.89 nM/min
AcpS rate ([3]; Drug Conc 2 uM): 97.97 nM/min and 91.69 nM/min and 92.02 nM/min
AcpS rate nM/min, Mean ([3]; Drug Conc 4 uM): 94.54 nM/min
AcpS rate ([3]; Drug Conc 4 uM): 95.47 nM/min and 93.88 nM/min and 94.27 nM/min
AcpS rate nM/min, Mean ([3]; Drug Conc 8 uM): 92.47 nM/min
AcpS rate ([3]; Drug Conc 8 uM): 92.76 nM/min and 91.81 nM/min and 92.85 nM/min
AcpS rate nM/min, Mean ([3]; Drug Conc 16 uM): 48.14 nM/min
AcpS rate ([3]; Drug Conc 16 uM): 58.48 nM/min and 54.48 nM/min and 31.45 nM/min
AcpS rate nM/min, Mean ([3]; Drug Conc 32 uM): 20.22 nM/min
AcpS rate ([3]; Drug Conc 32 uM): 22.18 nM/min and 16.02 nM/min and 22.44 nM/min
AcpS rate nM/min, Mean ([3]; Drug Conc 64 uM): 10.15 nM/min
AcpS rate ([3]; Drug Conc 64 uM): 9.77 nM/min and 11.77 nM/min and 8.90 nM/min
AcpS rate nM/min, Mean ([3]; Drug Conc 128 uM): 4.77 nM/min
AcpS rate ([3]; Drug Conc 128 uM): 4.67 nM/min (2×) and 4.95 nM/min
remaining activity at 1 µM ([3]; read-out: % of untreated, Suppl Fig 3, [AcpS_R48A] 5 nM, Drug Conc 1 uM, replicates): 106%
remaining activity at 2 µM ([3]; read-out: % of untreated, Suppl Fig 3, [AcpS_R48A] 5 nM, Drug Conc 2 uM, replicates): 101%
remaining activity at 4 µM ([3]; read-out: % of untreated, Suppl Fig 3, [AcpS_R48A] 5 nM, Drug Conc 4 uM, replicates): 98.7%
remaining activity at 8 µM ([3]; read-out: % of untreated, Suppl Fig 3, [AcpS_R48A] 5 nM, Drug Conc 8 uM, replicates): 95.9%
remaining activity at 32 µM ([3]; read-out: % of untreated, Suppl Fig 3, [AcpS_R48A] 5 nM, Drug Conc 32 uM, replicates): 22.9%
remaining activity at 64 µM ([3]; read-out: % of untreated, Suppl Fig 3, [AcpS_R48A] 5 nM, Drug Conc 64 uM, replicates): 10.1%
remaining activity at 128 µM ([3]; read-out: % of untreated, Suppl Fig 3, [AcpS_R48A] 5 nM, Drug Conc 128 uM, replicates): 4.83%
